Source: BindingDB's records for doi:10.1021/jm00072a019 (J. Uriach & Cía., 1993)

experiment: Inhibition of PAF-induced platelet aggregation

IC50 | SMILES
56 nM | Cc1ncccc1C(C#N)N1CCN(C(=O)CC(NC(=O)OC(C)(C)C)c2ccccc2)CC1 (stereo not given) [(3-{4-[Cyano-(2-methyl-pyridin-3-yl)-methyl]-piperazin-1-yl}-3-oxo-1-phenyl-propyl)-carbamic acid tert-butyl ester]
36 nM | Cc1ncccc1C(C#N)N1CCN(C(=O)CC(NC(=O)OCC(C)C)c2ccccc2)CC1 (stereo not given) [(3-{4-[Cyano-(2-methyl-pyridin-3-yl)-methyl]-piperazin-1-yl}-3-oxo-1-phenyl-propyl)-carbamic acid isobutyl ester]
11 nM | CNC(CC(=O)N1CCN(C(C#N)c2cccnc2C)CC1)c1ccccc1 (stereo not given) [[4-(3-Methylamino-3-phenyl-propionyl)-piperazin-1-yl]-(2-methyl-pyridin-3-yl)-acetonitrile]
42 nM | Cc1ncccc1C(C#N)N1CCN(C(=O)COC(c2ccccc2)c2ccccc2)CC1 (stereo not given) [[4-(2-Benzhydryloxy-acetyl)-piperazin-1-yl]-(2-methyl-pyridin-3-yl)-acetonitrile]
26 nM | Cc1ncccc1C(C#N)N1CCN(C(=O)C=C(c2ccccc2)c2ccccc2)CC1 (stereo not given) [[4-(3,3-Diphenyl-acryloyl)-piperazin-1-yl]-(2-methyl-pyridin-3-yl)-acetonitrile]

experiment: In vitro inhibition of PAF-induced platelet aggregation in male rabbits

IC50 | SMILES
82 nM | Cc1ncccc1C(C#N)N1CCN(C(=O)CN(C(c2ccccc2)c2ccccc2)S(C)(=O)=O)CC1 (stereo not given) [N-Benzhydryl-N-(2-{4-[cyano-(2-methyl-pyridin-3-yl)-methyl]-piperazin-1-yl}-2-oxo-ethyl)-methanesulfonamide]
130 nM | Cc1ncccc1C(C#N)N1CCN(C(=O)CC(NC(=O)c2ncccc2O)c2ccccc2)CC1 (stereo not given) [3-Hydroxy-pyridine-2-carboxylic acid (3-{4-[cyano-(2-methyl-pyridin-3-yl)-methyl]-piperazin-1-yl}-3-oxo-1-phenyl-propyl)-amide]
350 nM | Cc1ncccc1C(C#N)N1CCN(C(=O)CC(c2ccccc2)n2cccc2)CC1 (stereo not given) [(2-Methyl-pyridin-3-yl)-[4-(3-phenyl-3-pyrrol-1-yl-propionyl)-piperazin-1-yl]-acetonitrile]
46 nM | CCOC(=O)C(CC(=O)N1CCN(C(C#N)c2cccnc2C)CC1)(c1ccccc1)c1ccccc1 (stereo not given) [4-{4-[Cyano-(2-methyl-pyridin-3-yl)-methyl]-piperazin-1-yl}-4-oxo-2,2-diphenyl-butyric acid ethyl ester]
75 nM | Cc1ncccc1C(C#N)N1CCN(C(=O)CC(O)(c2ccc(F)cc2)c2ccc(F)cc2)CC1 (stereo not given) [{4-[3,3-Bis-(4-fluoro-phenyl)-3-hydroxy-propionyl]-piperazin-1-yl}-(2-methyl-pyridin-3-yl)-acetonitrile]
170 nM | Cc1ncccc1C(C#N)N1CCN(C(=O)CC(c2ccccc2)N2CCCS2(=O)=O)CC1 (stereo not given) [{4-[3-(1,1-Dioxo-1lambda*6*-isothiazolidin-2-yl)-3-phenyl-propionyl]-piperazin-1-yl}-(2-methyl-pyridin-3-yl)-acetonitrile]
15500 nM | CCOC(=O)C(c1cccnc1C)N1CCN(C(=O)CC(c2ccccc2)c2ccccc2)CC1 (stereo not given) [[4-(3,3-Diphenyl-propionyl)-piperazin-1-yl]-(2-methyl-pyridin-3-yl)-acetic acid ethyl ester]
18 nM | Cc1ncccc1C(C#N)N1CCN(C(=O)CC(NS(=O)(=O)c2ccccc2)c2ccccc2)CC1 (stereo not given) [N-(3-{4-[Cyano-(2-methyl-pyridin-3-yl)-methyl]-piperazin-1-yl}-3-oxo-1-phenyl-propyl)-benzenesulfonamide]
7800 nM | CO/N=C(/C)C(c1cccnc1C)N1CCN(C(=O)CC(c2ccccc2)c2ccccc2)CC1 (stereo not given) [1-{4-[2-Methoxyimino-1-(2-methyl-pyridin-3-yl)-propyl]-piperazin-1-yl}-3,3-diphenyl-propan-1-one]
32 nM | Cc1ncccc1C(C#N)N1CCN(C(=O)CC(C)c2ccccc2)CC1 (stereo not given) [(2-Methyl-pyridin-3-yl)-[4-(3-phenyl-butyryl)-piperazin-1-yl]-acetonitrile]
87 nM | Cc1ncccc1C(C#N)N1CCN(C(=O)CON=C(c2ccccc2)c2ccccc2)CC1 (stereo not given) [[4-(2-Benzhydrylideneaminooxy-acetyl)-piperazin-1-yl]-(2-methyl-pyridin-3-yl)-acetonitrile]
2600 nM | Cc1ncccc1C(C#N)N1CCN(C(=O)CC(NC(=O)c2ccoc2)c2ccccc2)CC1 (stereo not given) [Furan-3-carboxylic acid (3-{4-[cyano-(2-methyl-pyridin-3-yl)-methyl]-piperazin-1-yl}-3-oxo-1-phenyl-propyl)-amide]
21 nM | Cc1ncccc1C(C#N)N1CCN(C(=O)CC(NS(C)(=O)=O)c2ccccc2)CC1 (stereo not given) [N-(3-{4-[Cyano-(2-methyl-pyridin-3-yl)-methyl]-piperazin-1-yl}-3-oxo-1-phenyl-propyl)-methanesulfonamide]
32 nM | Cc1ncccc1C(C#N)N1CCN(C(=O)CC(O)(c2ccccc2)c2cccnc2)CC1 (stereo not given) [[4-(3-Hydroxy-3-phenyl-3-pyridin-3-yl-propionyl)-piperazin-1-yl]-(2-methyl-pyridin-3-yl)-acetonitrile]
18 nM | Cc1ncccc1C(C#N)N1CCN(C(=O)CC(c2ccccc2)N2CCCC2)CC1 (stereo not given) [(2-Methyl-pyridin-3-yl)-[4-(3-phenyl-3-pyrrolidin-1-yl-propionyl)-piperazin-1-yl]-acetonitrile]
36 nM | Cc1ncccc1C(C#N)N1CCN(C(=O)CC(C)(O)c2ccccc2)CC1 (stereo not given) [[4-(3-Hydroxy-3-phenyl-butyryl)-piperazin-1-yl]-(2-methyl-pyridin-3-yl)-acetonitrile]
29 nM | Cc1ncccc1C(C#N)N1CCN(C(=O)CC(NC(=O)c2ccc[nH]c2=O)c2ccccc2)CC1 (stereo not given) [N-(3-{4-[Cyano-(2-methyl-pyridin-3-yl)-methyl]-piperazin-1-yl}-3-oxo-1-phenyl-propyl)-2-hydroxy-nicotinamide]
12 nM | Cc1ncccc1C(C#N)N1CCN(C(=O)CC(c2ccccc2)C(F)(F)F)CC1 (stereo not given) [(2-Methyl-pyridin-3-yl)-[4-(4,4,4-trifluoro-3-phenyl-butyryl)-piperazin-1-yl]-acetonitrile]
14 nM | Cc1ncccc1C(C#N)N1CCN(C(=O)CC(O)(c2ccccc2)C(F)(F)F)CC1 (stereo not given) [(2-Methyl-pyridin-3-yl)-[4-(4,4,4-trifluoro-3-hydroxy-3-phenyl-butyryl)-piperazin-1-yl]-acetonitrile]
55 nM | Cc1ncccc1C(C#N)N1CCN(C(=O)/C=C(\c2ccccc2)C(F)(F)F)CC1 (stereo not given) [(2-Methyl-pyridin-3-yl)-[4-(4,4,4-trifluoro-3-phenyl-but-2-enoyl)-piperazin-1-yl]-acetonitrile]
120 nM | Cc1ncccc1C(C#N)N1CCN(C(=O)/C=C(/c2ccccc2)C(F)(F)F)CC1 (stereo not given) [(2-Methyl-pyridin-3-yl)-[4-(4,4,4-trifluoro-3-phenyl-but-2-enoyl)-piperazin-1-yl]-acetonitrile]
4000 nM | Cc1ncccc1C(CO)N1CCN(C(=O)CC(c2ccccc2)c2ccccc2)CC1 (stereo not given) [1-{4-[2-Hydroxy-1-(2-methyl-pyridin-3-yl)-ethyl]-piperazin-1-yl}-3,3-diphenyl-propan-1-one]
820 nM | Cc1ncccc1C(C#N)N1CCN(C(=O)CC(NC(=O)c2cnccn2)c2ccccc2)CC1 (stereo not given) [Pyrazine-2-carboxylic acid (3-{4-[cyano-(2-methyl-pyridin-3-yl)-methyl]-piperazin-1-yl}-3-oxo-1-phenyl-propyl)-amide]

SMILES | IC50
Cc1ncccc1C(C#N)N1CCN(C(=O)C[S+]([O-])C(c2ccccc2)c2ccccc2)CC1 (stereo not given) [{4-[2-(Diphenyl-methanesulfinyl)-acetyl]-piperazin-1-yl}-(2-methyl-pyridin-3-yl)-acetonitrile] | 44 nM
Cc1ncccc1C(C#N)N1CCN(C(=O)CS(=O)(=O)C(c2ccccc2)c2ccccc2)CC1 (stereo not given) [{4-[2-(Diphenyl-methanesulfonyl)-acetyl]-piperazin-1-yl}-(2-methyl-pyridin-3-yl)-acetonitrile] | 26 nM
